Results from patent publication US12465590B2, “Oxalamido-substituted tricyclic inhibitors of hepatitis b virus” (priority 2019, dated 2025).

Legend:
Details in all cases: Hepatitis B virus, HepG2, read-out: EC50 ± StD (nM)
[1] = system: HBV genotype C2; experiment: Antiviral effect on HBV genotypes, transiently transfected HepG2 cells; type: cell-based
Text: (§1) HepG2 cell line was used for HBV genotypes and core variants inhibition assays. HepG2 cell line is maintained in DMEM supplemented with 10% of fetal bovine serum, 1% of glutamine and 1% of penicillin/streptomycin.
(§2) For antiviral effect on HBV A-E genotypes, HepG2 cell line and DNA plasmids expressing HBV genome of different genotypes, from A to E, were used. HepG2 were transiently transfected with plasmid DNA harboring 1.1-mer-overlength genomic sequences of each HBV genotypes A to E isolates cloned into the pcDNA3.1/Zeo(−) vector as described in J Virol. 2010, 84, 3879-88 (https://doi.org/10.1128/JVI.02528-09). Each plasmid contains the 1.1×HBV genome under the control of a CMV promoter. The list of plasmid used is the following: pcDNA3.1-HBV1.1-A2 (HBV genotype A2), pcDNA3.1-HBV1.1—B2 (HBV genotype B2), pcDNA3.1-HBV1.1—C2 (HBV genotype C2), pcDNA3.1-HBV1.1-D (described as p26 in the above reference, HBV genotype D), pcDNA3.1-HBV1.1-E (HBV genotype E). Methods of generating plasmids are well know in the art (as for example in Viruses 2020, 12, 353, doi:10.3390/v12030353; Antiviral Research 144 (2017) 205-215, http://dx.doi.org/10.1016/j.antiviral.2017.06.016) and the selection of a suitable method is not a limitation on the present invention.
(§3) HepG2 cells were seeded in polylysine coated 96 multiwell plates at a density of 2*10^4 cells/well and incubated overnight at 37° C. The following day cells were transfected with the HBV plasmids (100 ng/well) using the Lipofectamine 3000 Reagent (Thermo Fisher Scientific) and following manufacturer instructions. After 5 h transfection mixtures were removed and cells were treated with serially diluted compounds in 0.5% DMSO at 8-point dose-response as previously described. After 96 hours of incubation at 37° C. with compound the supernatants were collected, centrifuged for cell debris clarification and incubated with DNase I amplification grade 1 Unit/50 μl (Sigma) for 1 h at 37° C. to allow plasmid input digestion. Quantification of extracellular HBV DNA with direct qPCR was performed as previously described. To avoid unspecific detection of HBV plasmid and to confirm plasmid digestion, specific primers designed across plasmid backbone and HBV sequence were added as controls (HBV-CNT-gt-F:5′-[…]-3′ (SEQ ID No. 3), HBV-CNT-gt-R:5′-[…]-3′(SEQ ID No. 4)). Antiviral activity data for each genotype are reported as EC50 mean value. Moreover the EC50 shift value is indicated, corresponding to the ratio between the observed EC50 and the EC50 for genotype D, which is used as reference genotype (see RESULTS, Table 2 legend). Excel and Graphpad Prism programs are typically used for data elaboration and EC50 calculation.

[2] = system: HBV genotype B2; experiment: as above; type: cell-based
Text: as §1, §2, §3

[3] = system: HBV genotype A2; experiment: as above; type: cell-based
Text: as §1, §2, §3

[4] = system: HBV genotype D; experiment: as above; type: cell-based
Text: as §1, §2, §3

[5] = system: HBV genotype E; experiment: as above; type: cell-based
Text: as §1, §2, §3

[6] = system: HBV core protein variant T33N; experiment: Antiviral effect against core variants, transfected HepG2 cells; type: cell-based, HBV genotype D
Method: as §1, §3
(§4) The experimental procedure for antiviral effect against HBV core protein variants was similar to the one previously described for antiviral effect on HBV A-E Genotypes. Different core point mutations (F23Y, F110I, I105T, L37Q, T33N, T33P, T128I, V124G, Y118F) were selected based on their ability to reduce potency of CAMs currently in development (literature data) and introduced in the plasmids containing the HBV genome of genotype D (pcDNA3.1-HBV1.1-D, described above). The following list of plasmids was generated by site-directed mutagenesis of the parent plasmid pcDNA3.1-HBV1.1-D (p26 in J Virol. 2010, 84, 3879-88): pcDNA3.1-HBV1.1-D-CoreF23Y, pcDNA3.1-HBV1.1-D-CoreF110I, pcDNA3.1-HBV1.1-D-Core 1105 T, pcDNA3.1-HBV1.1-D-CoreL37Q, pcDNA3.1-HBV1.1-D-CoreT33N, pcDNA3.1-HBV1.1-D-CoreT33P, pcDNA3.1-HBV1.1-D-CoreT128I, pcDNA3.1-HBV1.1-D-CoreV124G, pcDNA3.1-HBV1.1-D-CoreY118F (point mutations in the nucleotide codon relative to the indicated core aminoacid substitution are the followings: TTC/TAC for F23Y, TTT/ATT for F110I, ATT/ACT for I105T, CTG/CAG for L37Q, ACC/AAC for T33N, ACC/CCC for T33P, ACT/ATT for T128I, GTG/GGG for V124G, TAT/TTT for Y118F). Antiviral activity data for each variant are reported as EC50 mean value and EC50 shift compared to wild type (see RESULTS, Table 4 legend). Excel and Graphpad Prism programs are typically used for data elaboration and EC50 calculation.

[7] = system: HBV core protein variant T128I; experiment: as above; type: cell-based, HBV genotype D
Method: as §1, §3, §4

[8] = system: HBV core protein variant F23Y; experiment: as above; type: cell-based, HBV genotype D
Method: as §1, §3, §4

[9] = system: HBV core protein variant T33P; experiment: as above; type: cell-based, HBV genotype D
Method: as §1, §3, §4

[10] = system: HBV core protein variant F110I; experiment: as above; type: cell-based, HBV genotype D
Method: as §1, §3, §4

[11] = system: HBV core protein variant V124G; experiment: as above; type: cell-based, HBV genotype D
Method: as §1, §3, §4

[12] = system: HBV core protein variant Y118F; experiment: as above; type: cell-based, HBV genotype D
Method: as §1, §3, §4

[13] = system: HBV core protein variant I105T; experiment: as above; type: cell-based, HBV genotype D
Method: as §1, §3, §4

[14] = system: HBV core protein variant L37Q; experiment: as above; type: cell-based, HBV genotype D
Method: as §1, §3, §4

Cc1cc(NC(=O)c2c3c(cn2C)S(=O)(=O)N[C@H]2CN(C(=O)C(=O)N[C@@H](C)C(F)(F)F)C[C@H]2CO3)ccc1F [Example E15, (3aR,10aR)—N-(4-fluoro-3-methylphenyl)-7-methyl-2-(2-oxo-2-(((S)-1,1,1-trifluoropropan-2-yl)amino)acetyl)-2,3,3a,4,10,10a-hexahydro-1H,7H-dipyrrolo[3,4-b:3′,4′-f][1,4,5]oxathiazocine-8-carboxamide 5,5-dioxide]
EC50 [1]: 0.72 ± 0.55 nM | EC50 [2]: 1.58 ± 0.7 nM | EC50 [3]: 2.14 ± 0.43 nM | EC50 [4]: 0.94 ± 0.49 nM | EC50 [5]: 1.79 ± 1.08 nM | EC50 [6]: 46.9 ± 21.1 nM | EC50 [7]: 8.91 ± 5.85 nM | EC50 [8]: 6.33 ± 0.94 nM | EC50 [9]: 1.68 ± 0.37 nM | EC50 [10]: 1.12 ± 0.3 nM | EC50 [11]: 6.8 ± 2.08 nM | EC50 [12]: 6.37 ± 1.84 nM | EC50 [13]: 3.22 ± 1.45 nM | EC50 [14]: 8.72 ± 3.76 nM
